Assay results reported in publication PMC10698032, “A monoacylglycerol lipase inhibitor showing therapeutic efficacy in mice without central side effects or dependence” (Nature Communications, 2023).

Tests used:
[1] = target: T1, MAGL (monoacylglycerol lipase) (Homo sapiens, UniProt Q99685); assay: fluorescent 2-AG hydrolysis assay on human MAGL-overexpressing HEK293T membranes; format: biochemical
T1 construct: gene MGLL; full-length, C-terminal FLAG-tag, HEK293T membrane fractions

[2] = target: T2, MAGL (monoacylglycerol lipase) (Mus musculus, UniProt O35678); assay: gel-based competitive ABPP with FP-TAMRA at […]; format: cell-based; set-up: gene Mgll; endogenous, mouse brain membrane proteome; details: read-out: % inhibition at 10 μM
T2 sequence (O35678 1-303): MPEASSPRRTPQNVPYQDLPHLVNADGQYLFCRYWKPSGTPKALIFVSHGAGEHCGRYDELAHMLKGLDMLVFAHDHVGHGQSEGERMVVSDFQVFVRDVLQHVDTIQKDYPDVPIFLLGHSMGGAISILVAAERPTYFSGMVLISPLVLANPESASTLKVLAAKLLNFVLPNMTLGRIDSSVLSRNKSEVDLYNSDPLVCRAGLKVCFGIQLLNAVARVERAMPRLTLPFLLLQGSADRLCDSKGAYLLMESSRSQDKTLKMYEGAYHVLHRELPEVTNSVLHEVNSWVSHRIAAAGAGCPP

[3] = target: T2, MAGL (monoacylglycerol lipase); assay: biochemical; set-up: gene Mgll; endogenous, mouse brain membrane proteome; gel-based competitive ABPP with FP-TAMRA on mouse brain membrane proteome, MAGL labelling, n=1; details: read-out: Inhibition ABPP assay (%)
Excerpt: Subsequently, the qualified hits underwent testing in an orthogonal gel-based competitive activity-based protein profiling (ABPP) assay, a powerful technique for obtaining an initial selectivity profile of these compounds. The assay employed fluorophosphonate-tetramethylrhodamine (FP-TAMRA), a broad-spectrum activity-based probe designed to target a wide range of serine hydrolases, including endocannabinoid hydrolases like MAGL, fatty acid amide hydrolase (FAAH), and alpha/beta hydrolase domain-containing protein 6 (ABHD6)[30],[31]. […] This observation could indicate potential species differences or a short residence time for the target. A correlation between inhibitor potency in the primary substrate-based assay and the orthogonal ABPP assay was, however, noted for the majority of compounds (Fig. 1f). […] This characteristic positions it as a promising candidate for further optimization. 71 Figure S1 72 73 74 75 76 Supplementary Figure 1 – Orthogonal competitive ABPP assay for hit validation and selectivity assessment. 77 ABPP was performed on mouse brain membrane proteome using FP-TAMRA. Proteome was pre-incubated with 78 inhibitor (10 µM, 30 min), followed by incubation with FP-TAMRA (100 nM, 10 min). JZL184 was included as 79 positive control on all gels. […] Physicochemical properties (cLogP, tPSA, HBD, HBA) were calculated using ChemDraw Professional 31 16.0.

T1 sequence (Q99685 whole entry): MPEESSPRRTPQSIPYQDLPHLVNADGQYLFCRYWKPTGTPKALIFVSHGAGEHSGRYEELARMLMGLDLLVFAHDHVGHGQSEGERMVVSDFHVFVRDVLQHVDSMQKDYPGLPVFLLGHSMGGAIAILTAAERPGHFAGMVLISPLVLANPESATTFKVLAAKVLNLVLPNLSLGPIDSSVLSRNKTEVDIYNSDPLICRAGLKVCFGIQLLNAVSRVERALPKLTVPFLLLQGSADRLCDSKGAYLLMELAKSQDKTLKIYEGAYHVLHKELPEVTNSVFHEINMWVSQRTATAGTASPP

IC50 [1]: 398 nM
inhibition at 10 µM [2]: > 25%
inhibition at 10 µM [3]: 86%
SMILES: CCOC(=O)C[S+]([O-])c1ccc(C(=O)N2CCN(c3cccc(C)c3)C(C)C2)cc1[N+](=O)[O-] (stereo not drawn) [compound 1, ethyl 2-((4-(3-methyl-4-(m-tolyl)piperazine-1-carbonyl)-2-nitrophenyl)sulfinyl)acetate]
